{"source": "ChEMBL document CHEMBL1158108", "about": "“C35 terpenoids from the bark of Calocedrus macrolepis var. formosana with activity against human cancer cell lines” (J Nat Prod, 2006)"}
{"system": "KB", "assay": "Cytotoxicity against human KB cells after 72 hrs", "assay_type": "functional, cell-based", "units": {"IC50": "µM"}}
{"smiles": "COc1cc([C@@H]2c3cc4c(cc3[C@@H](O[C@@H]3O[C@@H]5CO[C@@H](C)O[C@H]5[C@H](O)[C@H]3O)[C@H]3COC(=O)[C@H]23)OCO4)cc(OC)c1O", "note": "[ETOPOSIDE]", "IC50": 2}
{"smiles": "CC(C)c1cc2c(cc1O)[C@@]1(C)CCCC(C)(C)[C@@H]1C[C@H]2CC1=C[C@@H]2[C@@H](CC1)[C@](C)(O)CC[C@H]2C(C)C", "note": "[FERRUGICADINOL]", "IC50": 14.1}
{"smiles": "C=C1CC[C@@H]([C@H]2C[C@H]3C(C)(C)CCC[C@]3(C)c3cc(O)c(C(C)C)cc32)[C@]2(C)CC[C@@H](C(C)(C)O)C[C@@H]12", "note": "[FERRUGIEUDESMOL]", "IC50": 11.4}
